Source: US11633379B2, “Methods of inhibiting PCSK9” (TRUSTEES OF DARTMOUTH COLLEGE, priority 2017, dated 2023)
Values joined by “and” are separate entries in the source; they are usually repeats but may differ in a detail not shown here. Identical values can stand only once.

Tests used:
PCSK9 [1] = assay: PCSK9 AlphaLisa Huh7 SP and CRC; assay type: cell-based
PCSK9 [2] = assay: Basal_PCSK9 HepG2, primary SP and CRC (secreted PCSK9, ELISA); assay type: cell-based, human; settings: for Primary SP Basal_PCSK9 HepG2 SP % Inhib @ 5 μM / Primary SP Basal_PCSK9 HepG2 SP % Inhib @ 50 μM / Primary SP Basal_PCSK9 HepG2 SP % Inhib @ 2 μM: HepG2, single point; for IC50: HepG2, concentration response curve; for Primary SP Basal_PCSK9 HepG2 SP % Inhib @ 5 μM / accumulation of PCSK9 in culture media: 5 μM; for accumulation of PCSK9 in culture media: HepG2 cells, FIGS. 2A-2B; for activity rating in words (PCSK9 inhibition, Table 2): summary of Table 2 data
Description: To study the effect of the compounds on PCSK9 secretion we used 1×10^6 HepG2 cells in 6-well culture plates, followed by incubation with media only, media+0.1% DMSO or Media+5 uM of 31/33/34/35 in 0.1% DMSO and collection of 50 ul of media at 8, 16, 24 and 40 hours or incubation with increasing concentration (0.2-50 μM) of 34 in 0.1% DMSO for 24 hours and collection of 50 ul of media. The collected media was analyzed for PCSK9 levels using commercially available ELISA kit (MBL-international, catalog # CY-8079) following the manufacturer instruction.
(§1) The below data (Table 2) was generated using the assays as discussed in Examples 1-2. Blanks mean no testing was performed. […] For the SP assays, the higher the number, the higher the inhibition, e.g., the better the activity of the compound. Compounds with a determined IC50 are particularly active, the IC50 values were determined via dose response curve (under the heading CRC which stands for concentration response curve aka dose response curve).

PCSK9 [3] = assay: Secondary Basal_PCSK9 ELISA RPH; assay type: cell-based
Description: as §1

Compound	Primary SP Basal_PCSK9 HepG2 SP % Inhib @ 5 μM (PCSK9 [2]) [%]	Primary SP PCSK9 AlphaLisa Huh7 SP % Inhib @ 10 μM (PCSK9 [1]; Huh7)	further results
Cc1ccc2c(c1)C[C@@]1(C)c3ccccc3N(C)[C@H]1N2 [Compound 59]	–	–	Primary SP PCSK9 AlphaLisa Huh7 SP % Inhib @ 10.1 μM (PCSK9 [1]; 10.1 μM, Huh7): −5.307%
Cn1c2c(c3ccccc31)C(c1ccco1)C1C=CC2C1 (centres unmarked) [Compound 4]	11.69	–	–
CC1(C)c2c([nH]c3ccc(Br)cc23)C2C=CC1C2 (centres unmarked) [Compound 17]	37.33	–	–
Cn1c2c(c3ccccc31)C(c1ccc(C(F)(F)F)cc1)C1C=CC2C1 (centres unmarked) [Compound 3]	−0.4577	–	–
Cc1ccc(C2CC(C)(C)c3c2[nH]c2ccc(C)cc32)cc1 (centres unmarked) [Compound 36]	24.5	–	Primary SP Basal_PCSK9 HepG2 SP % Inhib @ 50 μM (PCSK9 [2]): 96.5%; IC50 (PCSK9 [2]): 18.6 µM
CC1(C)c2c([nH]c3ccccc23)C2C=CC1C2 (centres unmarked) [Compound 14]	–	–	Primary SP Basal_PCSK9 HepG2 SP % Inhib @ 2 μM (PCSK9 [2]): 47.9%; IC50 (PCSK9 [2]): > 50 µM
CC1(C)c2c(n(Cc3ccccc3)c3ccccc23)C2C=CC1C2 (centres unmarked) [Compound 13]	18.09	–	–
CC1(C)c2c([nH]c3ccc(I)cc23)C2C=CC1C2 (centres unmarked) [Compound 16]	9.989	–	–
C=CCc1ccc2c(c1)C[C@@]1(C)c3ccccc3N(C)[C@H]1N2 [Compound 61]	–	−16.91%	–
CCC1c2c(n(C)c3ccccc23)C2C=CC1C2 (centres unmarked) [Compound 6]	−5.193	–	–
Cn1c2c(c3ccccc31)C(c1ccccc1)C1C=CC2C1 (centres unmarked) [Compound 1]	–	–	Primary SP Basal_PCSK9 HepG2 SP % Inhib @ 2 μM (PCSK9 [2]): 0%
CC1(C)c2c([nH]c3ccc(F)cc23)C2C=CC1C2 (centres unmarked) [Compound 23]	–	−35.06%	–
Cc1ccc(C2CC3(CCCCC3)c3c2[nH]c2ccccc32)cc1 (centres unmarked) [Compound 33]	18.9	–	Secondary Basal_PCSK9 ELISA RPH % Inhib @ 20 μM (PCSK9 [3]; 20 μM): −4.143% and 2.541% and 3.284% and −5.595%; Secondary Basal_PCSK9 ELISA RPH % Inhib @ 100 μM (PCSK9 [3]): 25.95% and 29.77%; accumulation of PCSK9 in culture media (PCSK9 [2]): significantly reduced accumulation of PCSK9 in culture media in a time-dependent and concentration-dependent manner; Primary SP Basal_PCSK9 HepG2 SP % Inhib @ 50 μM (PCSK9 [2]): 53.4%; IC50 (PCSK9 [2]): 2.12 µM; activity rating in words (PCSK9 inhibition, Table 2) (PCSK9 [2]): particularly strongly active
CC1C=CC(C)C(c2ccccc2)c2c1n(C)c1ccccc21 (centres unmarked) [Compound 12]	–	−261.1%	–
CN1c2ccc(Br)cc2[C@]2(C)Cc3ccccc3N[C@H]12 [Compound 62]	–	10.55% and 20.08%	–
Cn1c2c(c3ccccc31)C1(CCCCC1)C1C=CC2C1 (centres unmarked) [Compound 9]	21.92	–	–
CC1=C(C)CC2(CCCCC2)c2c(n(C)c3ccccc23)C1 [Compound 10]	11.61	–	–
Cn1c2c(c3ccccc31)C1(CCCCC1)CC2c1ccc2ccccc2c1 (centres unmarked) [Compound 22]	77.2	–	IC50 (PCSK9 [1]; Huh7, concentration response curve, read-out: Primary CRC PCSK9 AlphaLisa Huh7 CRC Rel IC50): > 40 µM
COC(=O)[C@@H]1CC[C@H](O)[C@@]2(C)c3ccccc3N(C)[C@@H]12 [Compound 49]	–	–	Primary SP Basal_PCSK9 HepG2 SP % Inhib @ 50 μM (PCSK9 [2]): −13.7% and −22.9%
C[C@@]12Cc3ccccc3N[C@@H]1N(Cc1ccccc1)c1ccccc12 [Compound 55]	–	−22.6%	–
Cn1c2c(c3ccccc31)C1(CCCCC1)CC2c1ccccc1 (centres unmarked) [Compound 19]	7.268	–	–

Compound	Primary SP Basal_PCSK9 HepG2 SP % Inhib @ 5 μM (PCSK9 [2]) [%]	Primary SP PCSK9 AlphaLisa Huh7 SP % Inhib @ 10 μM (PCSK9 [1]; Huh7)	further results
CN1c2ccccc2[C@]2(Cc3ccccc3)Cc3ccccc3N[C@H]12 [Compound 57]	–	17.71%	–
CC1(C)c2c([nH]c3ccc(C(F)(F)F)cc23)C2C=CC1C2 (centres unmarked) [Compound 25]	–	−334%	–
Cc1ccc(C2CC3(CCCCC3)c3c2n(C)c2ccccc32)cc1 (centres unmarked) [Compound 21]	12.18	–	–
c1ccc(C2CC3(CCCCC3)c3c2[nH]c2ccccc32)cc1 (centres unmarked) [Compound 32]	8.8	–	Primary SP Basal_PCSK9 HepG2 SP % Inhib @ 50 μM (PCSK9 [2]): 11.9%; activity rating in words (PCSK9 inhibition, Table 2) (PCSK9 [2]): weakly active
Cc1cccc2c1N[C@@H]1N(C)c3ccccc3[C@]1(C)C2 [Compound 58]	–	−2.718%	–
Cc1ccc(C2CC(C)(C)c3c2[nH]c2ccccc32)cc1 (centres unmarked) [Compound 31]	26.2	–	Secondary Basal_PCSK9 ELISA RPH % Inhib @ 100 μM (PCSK9 [3]): 19.03% and 22.14%; accumulation of PCSK9 in culture media (PCSK9 [2]): significantly reduced accumulation of PCSK9 in culture media in a time-dependent and concentration-dependent manner; Primary SP Basal_PCSK9 HepG2 SP % Inhib @ 50 μM (PCSK9 [2]): 87.5%; IC50 (PCSK9 [2]): 4.12 µM; activity rating in words (PCSK9 inhibition, Table 2) (PCSK9 [2]): particularly strongly active
Cn1c2c(c3ccccc31)C(c1cccs1)C1C=CC2C1 (centres unmarked) [Compound 5]	30.55	–	–
COC(=O)c1ccc2[nH]c3c(c2c1)C(C)(C)C1C=CC3C1 (centres unmarked) [Compound 15]	–	−117.8%	–
CC1=CCc2c(c3ccccc3n2C)C(c2ccccc2)C1 (centres unmarked) [Compound 11]	38.95	–	–
COc1ccc(C2CC3(CCCCC3)c3c2n(C)c2ccccc32)cc1 (centres unmarked) [Compound 20]	15.69	–	–
CC1(C)c2c([nH]c3ccc(Cl)cc23)C2C=CC1C2 (centres unmarked) [Compound 18]	21.64	–	–
CC1(C)c2c([nH]c3ccc(O)cc23)C2C=CC1C2 (centres unmarked) [Compound 24]	4.997	–	–
Cn1c2c(c3ccccc31)C1(CCCC1)C1C=CC2C1 (centres unmarked) [Compound 7]	–	−34.71%	–
CN1c2ccccc2[C@]2(C)Cc3cc(Cl)ccc3N[C@H]12 [Compound 60]	–	9.09%	–
Cn1c2c(c3ccccc31)C1(CCCCC1)C1C=CC2C1 (centres unmarked) [Compound 8]	–	−44.02%	–
CC1(C)C(=O)C[C@@]2(C)c3ccccc3N(Cc3ccccc3)[C@@]12C [Compound 53]	–	–	Primary SP Basal_PCSK9 HepG2 SP % Inhib @ 50 μM (PCSK9 [2]): −20.1% and −22.3%
COc1ccc(C2c3c(n(C)c4ccccc34)C3C=CC2C3)cc1 (centres unmarked) [Compound 2]	39.51	–	–
CN1c2ccccc2[C@]2(C)Cc3ccccc3N[C@H]12 [Compound 54]	–	−11.97%	–
CCC[C@@]12Cc3ccccc3N[C@@H]1N(C)c1ccccc12 [Compound 56]	–	32.56% and 23.45%	–
Cc1ccc(C2CC3(CCCCC3)c3c2[nH]c2ccc(C)cc32)cc1 (centres unmarked) [Compound 35]	26.4	–	accumulation of PCSK9 in culture media (PCSK9 [2]): significantly reduced accumulation of PCSK9 in culture media in a time-dependent and concentration-dependent manner; Primary SP Basal_PCSK9 HepG2 SP % Inhib @ 50 μM (PCSK9 [2]): 90%; IC50 (PCSK9 [2]): 3.14 µM; activity rating in words (PCSK9 inhibition, Table 2) (PCSK9 [2]): particularly strongly active
